Read-outs that look alike come from different tables or passages of the source. *1 amine or outer side, *2 acyl side, *3 side chain or, on linkers, in order; H or OH if unused. Where a SMILES comes first, the peptide text is derived from it. Bridges are numbered along the chain shown (N, C = ends). [ ]: non-standard residue; d: D form. The star is where a group is joined. pTerphenylCO(4''-OnC5H11) = CCCCCOc1ccc(-c2ccc(-c3ccc(C(=O)*)cc3)cc2)cc1; Orn(4R-OH,5R-OH) = O=C([C@H](C[C@@H](O)[C@@H](O)N[*:3])N[*:1])[*:2]; hTyr(3S-OH,4S-OH) = N[C@H](C(=O)O)[C@H](O)[C@@H](O)c1ccc(O)cc1; Pro(3S-OH,4S-Me) = C[C@H]1CN[C@H](C(=O)O)[C@H]1O; Hyp = O=C(O)[C@@H]1C[C@@H](O)CN1
How the values were obtained:
[1] = Stability in phosphate buffered saline (PBS); format: physicochemical; conditions: PBS pH 7.4, 37° C.
Description: (§1) Stock solutions of compound 22 and anidulafungin were prepared in DMSO at a concentration of 1 mg/mL. Plasma samples were prepared by mixing plasma with 10% volume of 1 M sodium phosphate, pH 7.4, to minimize pH fluctuation, and stock solution to produce plasma samples containing approximately 10,000 ng/mL compound 22 or anidulafungin. For the stability experiments in PBS buffer, plasma was replaced with phosphate buffered saline, pH 7.4. The DMSO concentration was 1% in the final incubation. Multiple individual aliquots (0.5 mL each) were prepared, capped, and incubated at 37° C. At each stability time point, the reaction was stopped by removing the sample from the incubator and adding 0.5 mL of acetonitrile containing internal standard. Samples were centrifuged for approximately 5 minutes at 10000 rpm to precipitate the proteins. Stability was measured in five different matrices (i.e. rat plasma, dog plasma, monkey plasma, human plasma, and PBS). An aliquot (100 μL) of supernatant of each sample was assayed by HPLC. The percentage of anidulafungin and compound 22 remaining at each time point was calculated by dividing the peak area ratio at each time point by the peak area ratio at time zero.

[2] = Pharmacokinetics following intravenous administration in beagle dogs; format: in vivo; conditions: 1.4 mg/kg IV slow bolus
Description: Echinocandin class compounds were administered to beagle dogs weighing approximately 6-10 kg. Each compound was dosed at 1.4 mg/kg in aqueous saline (with or without 0.5% Tween) over course of 1-10 minutes. […] The dogs were fasted at least 12 hours prior to each dosing and offered food after the 4-hour blood sample was taken; water was withheld for 1 hour prior to and 4 hours following each dosing event. The dose for each animal was based on its most recent body weight. The test article was injected intravenously via a catheter placed in the cephalic vein as a slow bolus.
Blood was collected via the jugular vein. All blood samples (1 mL each) were collected into K3EDTA tubes. Following blood collection, the samples were immediately inverted several times and were held on wet ice pending centrifugation. The samples were centrifuged within 30 minutes of collection under refrigeration (˜5° C. for 10 minutes at 2000 g) to obtain plasma. The plasma was frozen immediately on dry ice after separation. The plasma samples were stored at approximately ˜70° C. until analysis.
Plasma (100 μL) was precipitated with 400 μL of 0.1% formic acid in acetonitrile containing the internal standard (100 ng/mL pneumocandin). The samples were then capped and vortexed for about 30 seconds followed by centrifugation at 14,000 rpm at room temperature for 10 minutes. Following centrifugation 200 μL of supernatant was transferred to plastic autosampler vials containing 200 μL of 0.1% formic acid in water and vortexed. Samples were then analyzed by LCMSMS.
All pharmacokinetic calculations were performed using WinNonlin version 4.1 (Pharsight Corp) by noncompartmental analysis.

[3] = Pharmacokinetics (oral bioavailability) following oral administration in beagle dogs; format: in vivo; set-up: key to Improvement (ratio of % oral bioavailability to saline): NI = no improvement in oral bioavailability in comparison to saline; conditions: for % BA / Improvement (ratio of % oral bioavailability to saline): oral
Description: Echinocandin class compounds were administered to beagle dogs weighing approximately 6-10 kg. Each animal received the appropriate prepared test article in a single oral capsule dose at a target dose level of about 7-10 mg/kg. Immediately after dosing, each animal was offered 20 mL-30 mL of water orally (Groups 1-4) or 30 mL of water orally to assist in swallowing the capsule.
Animals were treated and blood samples were drawn and analyzed as provided in Example 1.
The bioavailability of each oral dose formulation was estimated by comparison to intravenous plasma concentration data in dogs from Example 1. The results provided in Table 3 show the oral bioavailability for the echinocandin class compound in saline (formulation 11), and the improvement over saline with the use of a formulation of the invention.

[4] = Solubility in aqueous media of varying pH; format: physicochemical; conditions: ambient temperature, compound 22 as acetate salt, salt free equivalent, read-out: Solubility
[5] = Circulating half-life in chimpanzee; format: in vivo; conditions: in vivo, iv, 1 mg/kg, assays conducted by applicant, read-out: Half-life (converted)
[6] = Circulating half-life in rat; format: in vivo; conditions: in vivo, assays conducted by applicant, read-out: Half-life (converted)
[7] = Pharmacokinetics in chimpanzee, IV dose; conditions: female, in vivo, chimpanzees, 1-mg/kg IV 60-minute infusion, mean of 2 chimps
Description: Pharmacokinetic studies were performed in six adult female chimpanzees. Two chimpanzees received 1-mg/kg IV dose of compound 22 formulated in 5% dextrose (60-minute infusion). Two chimpanzees received 10-mg/kg oral dose of compound 22 formulated in 5% citric acid (oral bolus). Two chimpanzees received 1-mg/kg IV dose of anidulafungin formulated as package label (5% dextrose, 60-minute infusion). Plasma samples were collected from all chimps for 10 days to 22 days. PK curves are depicted in FIGS. 16A, 16B, and 18. All pharmacokinetic calculations were performed using WinNonlin version 4.1 (Pharsight Corp) by noncompartmental analysis.

[8] = Circulating half-life in monkey; format: in vivo; conditions: in vivo, assays conducted by applicant, read-out: Half-life (converted)
[9] = Stability in human plasma; format: in vitro ADME; conditions: human plasma, 37° C.
Description: as §1

[10] = Stability in dog plasma; format: in vitro ADME; conditions: dog plasma, 37° C.
Description: as §1

[11] = Circulating half-life in dog; format: in vivo; conditions: beagle, in vivo, assays conducted by applicant, read-out: Half-life (converted)

CCCCCOc1ccc(-c2ccc(-c3ccc(C(=O)N[C@H]4C[C@@H](O)[C@@H](O)NC(=O)[C@@H]5[C@@H](O)[C@@H](C)CN5C(=O)[C@H]([C@@H](C)O)NC(=O)[C@H]([C@H](O)[C@@H](O)c5ccc(O)cc5)NC(=O)[C@@H]5C[C@@H](O)CN5C(=O)[C@H]([C@@H](C)O)NC4=O)cc3)cc2)cc1 [Anidulafungin, anidulafungin, reference compound] ({pTerphenylCO(4''-OnC5H11)}-[Orn(4R-OH,5R-OH)]T[Hyp][hTyr(3S-OH,4S-OH)]T[Pro(3S-OH,4S-Me)]; lactam 1-C)
% remaining ([1]; 0 h): 100% | % remaining ([1]; 1 h): 100% | % remaining ([1]; 2 h): 97.8% | % remaining ([1]; 4 h): 87.4% | % remaining ([1]; 8 h): 86.0% | % remaining ([1]; 21 h): 68.9% | % remaining ([1]; 44 h): 41.9% | Mean clearance [2]: 0.785 mL/min/kg | T1/2 [2]: 11.6 h | Volume of Distribution [2]: 0.779 L/kg | AUC ([2]; dog, in vivo, read-out: AUC): 27800 ng·h/mL | Cmax ([2]; dog, in vivo, read-out: Cmax): 3230 ng/mL | % BA in saline ([3]; oral about 7-10 mg/kg, formulation 11 (saline)): 7.80% | % BA ([3]; formulation 1): (14.3%) | Improvement (ratio of % oral bioavailability to saline) ([3]; formulation 1): 1.8 | Improvement (ratio of % oral bioavailability to saline) ([3]; formulation 2): NI | % BA ([3]; formulation 3): (9.80%) | Improvement (ratio of % oral bioavailability to saline) ([3]; formulation 3): 1.3 | Improvement (ratio of % oral bioavailability to saline) ([3]; formulation 4): NI^4 | % BA ([3]; formulation 5): (16.5%) | Improvement (ratio of % oral bioavailability to saline) ([3]; formulation 5): 2.1 | Improvement (ratio of % oral bioavailability to saline) ([3]; formulation 6): NI | solubility ([4]; Sterile Water for injection): < 10 µg/mL | solubility ([4]; aqueous buffer, Acetate buffer (0.01M, pH 4.5)): < 10 µg/mL | solubility ([4]; aqueous buffer, Acetate buffer (0.01M, pH 5.5)): < 10 µg/mL | solubility ([4]; aqueous buffer, Tris buffer (0.01M, pH 8.5)): < 10 µg/mL | solubility ([4]; aqueous with cosolvent or surfactant or cyclodextrin, 90% Water:10% glycerol): < 10 µg/mL | Half-life [5]: 30 h | Half-life [6]: 22 h | clearance ([7]; read-out: Clearance (converted)): 0.417 mL/min/kg | Half-life ([7]; read-out: Plasma half-life (IV) (converted)): 30 h | Vd ([7]; read-out: Volume of distribution): 1.1 L/kg | Half-life [8]: 8 h | % remaining ([9]; 0 h): 100% | % remaining ([9]; 1 h): 102% | % remaining ([9]; 2 h): 98.0% | % remaining ([9]; 4 h): 61.8% | % remaining ([9]; 8 h): 72.0% | % remaining ([9]; 21 h): 51.2% | % remaining ([9]; 44 h): 7.3% | % remaining ([10]; 0 h): 100% | % remaining ([10]; 1 h): 100% | % remaining ([10]; 2 h): 94.8% | % remaining ([10]; 4 h): 77.1% | % remaining ([10]; 8 h): 81.1% | % remaining ([10]; 21 h): 47.2% | % remaining ([10]; 44 h): 14.6% | Half-life [11]: 12 h
